Peptide text beside a SMILES is read from it.
Experiment: Solubility and aggregation state seen by NMR
Type: physicochemical
Conditions: one equivalent of peptide to 50 µM c-MycC52, 10 mM sodium cacodylate pH 6.6, 10% D2O, 283 K, read-out 1H NMR
Protocol: NMR: ^1H NMR spectra of c-MycC52 were recorded at 283 K using a Bruker Avance NEO 600 MHz spectrometer equipped with QCI-F cryoprobe operating Topspin 4.5.0. Spectra were recorded with excitation sculpting, at 27.75 ppm spectral width, 1 s acquisition time, and 1 s recycle delay. Spectra of the imino proton region were acquired with a 1D SOFAST excitation scheme with a 1293 μs Pc9_4_120 excitation pulse and 720 μs Reburp refocusing pulse, centred at 13 ppm, a 29.75 ppm spectral width, 115 ms acquisition time, and 100 ms recycle delay. Samples were annealed at a final concentration of 50 µM in 10 mM sodium cacodylate (pH 6.6). 10% D2O and 0.01% sodium trimethylsilylpropanesulfonate (DSS) were added immediately before recording NMR spectra experiments. Spectra were processed with exponential line broadening and referenced to the Sodium trimethylsilylpropanesulfonate (DSS) chemical shift. The chemical shift of the cacodylate buffer resonance was used to monitor potential pH changes between samples.
Given the selectivity of the Pep-PTN and Pep-VSE peptides for the c-Myc iM structure, both in the binding experiments and also the in vitro gene assays, we considered potential binding modes. We recorded NMR spectra of the c-MycC52 oligonucleotide in the presence and absence of Pep-VSE to give insights into potential binding sites (Supplementary Figs S17–S20). […]

**Q.** For `CC(=O)N[C@H](C(=O)N[C@@H](CO)C(=O)N[C@@H](CCC(=O)O)C(=O)N[C@@H](C)C(=O)N[C@@H](Cc1c[nH]c2ccccc12)C(=O)N[C@@H](CCCCN)C(=O)N[C@@H](CCC(=O)O)C(=O)N[C@H](C(=O)N[C@@H](CCCCN)C(=O)NCC(=O)N[C@@H](Cc1ccccc1)C(=O)N[C@@H](Cc1ccccc1)C(N)=O)C(C)C)C(C)C` [Pep-VSE] (Ac-VSEAWKEVKGFF-NH2), which “solubility and aggregation state of the peptide (NMR)” value is on record?
**A.** soluble and not aggregated

From paper PMC12596500, “Affinity-selected peptide ligands specifically bind i-motif DNA and modulate c-Myc gene expression” (Nucleic Acids Research, 2025)
